Test results taken from patent US8940779B2, “Microbicidal composition” (Rohm and Haas Company, priority 2007, dated 2015).
“And” between values parts separate entries of the source, which are not always exact repeats. Equal entries are not always repeated. Where two headings read alike, the source gives them in different places.

Legend:
Assay type in all cases: cell-based
[1] = test system: Aspergillus niger (A. niger, ATCC 16404); experiment: Microtiter plate MIC synergy test (Kull synergy index), mold; settings: for Ca, first component alone (QA, MIC): A. niger, component acting alone; for MIC: Aspergillus niger
From the text: (§1) One measure of synergism is the industrially accepted method described by Kull, F. C.; Eisman, P. C.; Sylwestrowicz, H. D. and Mayer, R. L., in Applied Microbiology 9:538-541 (1961), using the ratio determined by the formula: Qa/QA+Qb/QB=Synergy Index (“SI”) wherein: • QA=concentration of compound A (first component) in ppm, acting alone, which produced an end point (MIC of Compound A). • Qa=concentration of compound A in ppm, in the mixture, which produced an end point. • QB=concentration of compound B (second component) in ppm, acting alone, which produced an end point (MIC of Compound B). • Qb=concentration of compound B in ppm, in the mixture, which produced an end point.
(§2) When the sum of Qa/QA and Qb/QB is greater than one, antagonism is indicated. […] The lower the SI, the greater the synergy shown by that particular mixture. The minimum inhibitory concentration (MIC) of a microbicide is the lowest concentration tested under a specific set of conditions that prevents the growth of added microorganisms.
(§3) Synergy tests were conducted using standard microtiter plate assays with media designed for optimal growth of the test microorganism. Minimal salt medium supplemented with 0.2% glucose and 0.1% yeast extract (M9GY medium) was used for testing bacteria; Potato Dextrose Broth (PDB medium) was used for testing yeast and mold. In this method, a wide range of combinations of microbicides was tested by conducting high resolution MIC assays in the presence of various concentrations of MBIT. High resolution MICs were determined by adding varying amounts of microbicide to one column of a microtitre plate and doing subsequent […] dilutions using an automated liquid handling system to obtain a series of endpoints ranging from 2 ppm to 10,000 ppm active ingredient.
(§4) The synergy of the combinations of the present invention was determined against a bacterium, Escherichia coli (E. coli—ATCC #8739), a yeast, Candida albicans (C. albicans—ATCC 10231), and a mold, Aspergillus niger (A. niger—ATCC 16404). The bacteria were used at a concentration of about 5×10^6 bacteria per mL and the yeast and mold at 5×10^5 fungi per mL. These microorganisms are representative of natural contaminants in many consumer and industrial applications. […] (yeast and mold) or 30° C. (bacteria).
(§5) In each test, Second Component (B) was MBIT and the First Component (A) was the other commercial microbicide.

[2] = test system: Candida albicans (C. albicans, ATCC 10231); experiment: Microtiter plate MIC synergy test (Kull synergy index), yeast; settings: for Ca, first component alone (QA, MIC) / Cb, MBIT alone (QB, MIC): C. albicans; for Ca, first component alone (QA, MIC): component acting alone; for Cb, MBIT alone (QB, MIC): MBIT acting alone; for MIC: Candida albicans, ATCC10231
From the text: as §1, §2, §3, §4, §5

Ps. aeruginosa ATCC#9027 = experiment: Microtiter plate MIC synergy test (Kull synergy index), bacterium; settings: for Ca, first component alone (QA, MIC) / Cb, MBIT alone (QB, MIC): Ps. aeruginosa; for Ca, first component alone (QA, MIC): component acting alone; for Cb, MBIT alone (QB, MIC): MBIT acting alone; for MIC: Pseudomonas aeruginosa, ATCC9027
S. aureus ATCC#6538 = experiment: as above; settings: for Ca, first component alone (QA, MIC) / Cb, MBIT alone (QB, MIC): S. aureus; for Ca, first component alone (QA, MIC): component acting alone; for Cb, MBIT alone (QB, MIC): MBIT acting alone; for MIC: Staphylococcus aureus, ATCC6538

N#CC(Br)(Br)C(N)=O [DBNPA, 2,2-Dibromo-3-nitrilopropionamide]
Ca, first component alone (QA, MIC) ([1]; contact time 3 days): 42.5 ppm AI | Ca, first component alone (QA, MIC) ([1]; contact time 7 days): 200 ppm AI | Ca, first component alone (QA, MIC) ([2]; contact time 48 hrs): 44 ppm AI | Ca, first component alone (QA, MIC) ([2]; contact time 72 hrs): >44 ppm AI | Ca, first component alone (QA, MIC) (Ps. aeruginosa ATCC#9027; contact time 24 hrs): 4.25 ppm AI | Ca, first component alone (QA, MIC) (Ps. aeruginosa ATCC#9027; contact time 48 hrs): 5.25 ppm AI | Ca, first component alone (QA, MIC) (S. aureus ATCC#6538; contact time 48 hrs): 8.5 ppm AI

C=O [HCHO, Formaldehyde]
Ca, first component alone (QA, MIC) ([1]; contact time 3 days): 200 ppm AI | Ca, first component alone (QA, MIC) ([1]; contact time 7 days): 425 ppm AI | Ca, first component alone (QA, MIC) ([2]; contact time 48 hrs): 425 ppm AI | Ca, first component alone (QA, MIC) ([2]; contact time 72 hrs): 525 ppm AI | Ca, first component alone (QA, MIC) (Ps. aeruginosa ATCC#9027; contact time 24 hrs): 15 ppm AI | Ca, first component alone (QA, MIC) (Ps. aeruginosa ATCC#9027; contact time 48 hrs): 26.25 ppm AI | Ca, first component alone (QA, MIC) (S. aureus ATCC#6538; contact time 24 hrs): 30 ppm AI | Ca, first component alone (QA, MIC) (S. aureus ATCC#6538; contact time 48 hrs): 30 ppm AI

Cn1sc2ccccc2c1=O [MBIT, N-methyl-1,2-benzisothiazolin-3-one]
Cb - ppm AI of MBIT (MIC end-point; alone QB or in the mixture Qb) ([1]; A. niger ATCC # 16404, contact time 3 days, Table 5): 37.5 ppm | Cb - ppm AI of MBIT (MIC end-point; alone QB or in the mixture Qb) ([1]; A. niger ATCC # 16404, contact time 3 days, Table 6): 37.5 ppm | Cb - ppm AI of MBIT (MIC end-point; alone QB or in the mixture Qb) ([1]; A. niger ATCC # 16404, contact time 7 days, Table 5): 150 ppm | Cb - ppm AI of MBIT (MIC end-point; alone QB or in the mixture Qb) ([1]; A. niger ATCC # 16404, contact time 7 days, Table 6): 150 ppm | Cb - ppm AI of MBIT (MIC end-point; alone QB or in the mixture Qb) ([2]; C. albicans ATCC # 10231, contact time 48 hrs, Table 5): 30 ppm | Cb - ppm AI of MBIT (MIC end-point; alone QB or in the mixture Qb) ([2]; C. albicans ATCC # 10231, contact time 48 hrs, Table 6): 30 ppm | Cb - ppm AI of MBIT (MIC end-point; alone QB or in the mixture Qb) ([2]; C. albicans ATCC # 10231, contact time 72 hrs, Table 5): 30 ppm | Cb - ppm AI of MBIT (MIC end-point; alone QB or in the mixture Qb) ([2]; C. albicans ATCC # 10231, contact time 72 hrs, Table 6): 30 ppm | Cb, MBIT alone (QB, MIC) ([2]; contact time 48 hrs): 30 ppm AI | Cb, MBIT alone (QB, MIC) ([2]; contact time 72 hrs): 30 ppm AI | Cb - ppm AI of MBIT (MIC end-point; alone QB or in the mixture Qb) (Ps. aeruginosa ATCC#9027; Ps. Aeruginosa ATCC#9027, contact time 24 hrs, Table 5): 100 ppm | Cb - ppm AI of MBIT (MIC end-point; alone QB or in the mixture Qb) (Ps. aeruginosa ATCC#9027; Ps. Aeruginosa ATCC#9027, contact time 48 hrs, Table 5): 175 ppm | Cb - ppm AI of MBIT (MIC end-point; alone QB or in the mixture Qb) (Ps. aeruginosa ATCC#9027; Ps. aeruginosa ATCC#9027, contact time 24 hrs, Table 6): 100 ppm | Cb - ppm AI of MBIT (MIC end-point; alone QB or in the mixture Qb) (Ps. aeruginosa ATCC#9027; Ps. aeruginosa ATCC#9027, contact time 48 hrs, Table 6): 175 ppm | Cb, MBIT alone (QB, MIC) (Ps. aeruginosa ATCC#9027; contact time 24 hrs): 100 ppm AI | Cb, MBIT alone (QB, MIC) (Ps. aeruginosa ATCC#9027; contact time 48 hrs): 175 ppm AI | Cb - ppm AI of MBIT (MIC end-point; alone QB or in the mixture Qb) (S. aureus ATCC#6538; S. aureus ATCC#6538, contact time 24 hrs, Table 5): 30 ppm | Cb - ppm AI of MBIT (MIC end-point; alone QB or in the mixture Qb) (S. aureus ATCC#6538; S. aureus ATCC#6538, contact time 24 hrs, Table 6): 30 ppm | Cb - ppm AI of MBIT (MIC end-point; alone QB or in the mixture Qb) (S. aureus ATCC#6538; S. aureus ATCC#6538, contact time 48 hrs, Table 5): 60 ppm | Cb - ppm AI of MBIT (MIC end-point; alone QB or in the mixture Qb) (S. aureus ATCC#6538; S. aureus ATCC#6538, contact time 48 hrs, Table 6): 60 ppm | Cb, MBIT alone (QB, MIC) (S. aureus ATCC#6538; contact time 24 hrs): 60 ppm AI and 30 ppm AI | Cb, MBIT alone (QB, MIC) (S. aureus ATCC#6538; contact time 48 hrs): 60 ppm AI

CCCCCCCCn1sccc1=O [OIT, 2-N-octyl-4-isothiazolin-3-one]
Ca, first component alone (QA, MIC) ([1]; contact time 3 days): 0.65 ppm AI | Ca, first component alone (QA, MIC) ([1]; contact time 7 days): 8.75 ppm AI | Ca, first component alone (QA, MIC) ([2]; contact time 48 hrs): 3.25 ppm AI | Ca, first component alone (QA, MIC) ([2]; contact time 72 hrs): 3.25 ppm AI | Ca, first component alone (QA, MIC) (Ps. aeruginosa ATCC#9027; contact time 24 hrs): 650 ppm AI | Ca, first component alone (QA, MIC) (Ps. aeruginosa ATCC#9027; contact time 48 hrs): 650 ppm AI | Ca, first component alone (QA, MIC) (S. aureus ATCC#6538; contact time 24 hrs): 30 ppm AI | Ca, first component alone (QA, MIC) (S. aureus ATCC#6538; contact time 48 hrs): 200 ppm AI

CCCC1COC(Cn2cncn2)(c2ccc(Cl)cc2Cl)O1 (stereo not shown) [propiconazole]
MIC ([1]; ATCC16404, 72 h, A. niger ATCC # 16404, contact time 3 days, read-out: Ca - ppm AI of Propiconazole (MIC end-point; alone QA or in the mixture Qa)): 52.5 µg/mL | MIC ([1]; ATCC16404, 168 h, A. niger ATCC # 16404, contact time 7 days, read-out: Ca - ppm AI of Propiconazole (MIC end-point; alone QA or in the mixture Qa)): 87.5 µg/mL | MIC ([2]; C. albicans ATCC # 10231, contact time 48 hrs, read-out: Ca - ppm AI of Propiconazole (MIC end-point; alone QA or in the mixture Qa)): 525 µg/mL | MIC ([2]; C. albicans ATCC # 10231, contact time 72 hrs, read-out: Ca - ppm AI of Propiconazole (MIC end-point; alone QA or in the mixture Qa)): 525 µg/mL | MIC (Ps. aeruginosa ATCC#9027; Ps. aeruginosa ATCC#9027, contact time 24 hrs, read-out: Ca - ppm AI of Propiconazole (MIC end-point; alone QA or in the mixture Qa)): 875 µg/mL | MIC (Ps. aeruginosa ATCC#9027; Ps. aeruginosa ATCC#9027, contact time 48 hrs, read-out: Ca - ppm AI of Propiconazole (MIC end-point; alone QA or in the mixture Qa)): 875 µg/mL | MIC (S. aureus ATCC#6538; S. aureus ATCC#6538, contact time 24 hrs, read-out: Ca - ppm AI of Propiconazole (MIC end-point; alone QA or in the mixture Qa)): 1100 µg/mL | MIC (S. aureus ATCC#6538; S. aureus ATCC#6538, contact time 48 hrs, read-out: Ca - ppm AI of Propiconazole (MIC end-point; alone QA or in the mixture Qa)): 1100 µg/mL

CC(C)(C)C(O)(CCc1ccc(Cl)cc1)Cn1cncn1 (stereo not shown) [tebuconazole]
MIC ([1]; ATCC16404, 72 h, A. niger ATCC # 16404, contact time 3 days, read-out: Ca - ppm AI of Tebuconazole (MIC end-point; alone QA or in the mixture Qa)): 4.25 µg/mL | MIC ([1]; ATCC16404, 168 h, A. niger ATCC # 16404, contact time 7 days, read-out: Ca - ppm AI of Tebuconazole (MIC end-point; alone QA or in the mixture Qa)): 11 µg/mL | MIC ([2]; C. albicans ATCC # 10231, contact time 48 hrs, read-out: Ca - ppm AI of Tebuconazole (MIC end-point; alone QA or in the mixture Qa)): 110 µg/mL | MIC ([2]; C. albicans ATCC # 10231, contact time 72 hrs, read-out: Ca - ppm AI of Tebuconazole (MIC end-point; alone QA or in the mixture Qa)): 110 µg/mL | MIC (Ps. aeruginosa ATCC#9027; Ps. aeruginosa ATCC#9027, contact time 24 hrs, read-out: Ca - ppm AI of Tebuconazole (MIC end-point; alone QA or in the mixture Qa)): 875 µg/mL | MIC (Ps. aeruginosa ATCC#9027; Ps. aeruginosa ATCC#9027, contact time 48 hrs, read-out: Ca - ppm AI of Tebuconazole (MIC end-point; alone QA or in the mixture Qa)): 1100 µg/mL | MIC (S. aureus ATCC#6538; S. aureus ATCC#6538, contact time 24 hrs, read-out: Ca - ppm AI of Tebuconazole (MIC end-point; alone QA or in the mixture Qa)): 300 µg/mL | MIC (S. aureus ATCC#6538; S. aureus ATCC#6538, contact time 48 hrs, read-out: Ca - ppm AI of Tebuconazole (MIC end-point; alone QA or in the mixture Qa)): 425 µg/mL
